US7097965B2 (priority 1996, dated 2006)

System: mouse mastocytoma cells
Assay type: cell-based

CC(=O)N[C@@H](CSC(=O)[C@]1([C@@H](O)C(C)C)NC(=O)[C@H](C)[C@@H]1O)C(=O)O [lactacystin]
lysis of the target cells by CTLs: significantly decreased lysis
